Data: patent US12162878B2 (HINOVA PHARMACEUTICALS INC., priority 2018, dated 2024)
pIC50: −log10 of the molar value.

Tested on: CWR22RV1 cells
Experiment: Inhibition of proliferation of CWR22RV1 cells (CCK-8)
Type: cell-based, human
Settings: Homo sapiens, CWR22Rv1, 144 h, 6 days
Procedure: • CWR22RV1 cell line (Cell Bank of Chinese Academy of Sciences, TCHu100) • FBS (Gibco, Cat. No. 10099-141) • 0.01M PBS (Biosharp, Cat. No. 162262) • RIPM1640 (Hyclone, Cat. No. 308090.01) • Penicillin-Streptomycin (Hyclone, Cat. No. SV30010) • Cell counting kit-8 (Signalway Antibody, Cat. No. CP002) • DMSO (Sigma, Cat. No. D5879) • Centrifuge Tube, 15 ml (Excell Bio, Cat. No. CS015-0001) • Cell Culture Dish, (Excell Bio, Cat. No. CS016-0128) • 96-well cell culture cluster (Corning, Cat. No. 3599) • 2. Experimental method (1) Preparation of Buffer
1) CWR22RV1 cells were subcultured in cell culture medium, and the cells in good growth condition were seeded in a 96-well plate, 80 μL for each well, thus the number of cells per well was 1500, then the plate was cultured overnight in a 37° C., 5% CO2 cell incubator.
2) The drug was prepared with dimethyl sulfoxide (DMSO) as a 30 mM stock solution. Prior to use, the solution was diluted 3 times with DMSO, and then diluted with a 3-fold gradient to obtain 9 concentration gradients. Then, each concentration of the compound was further diluted 200 times with the culture solution (to ensure that DMSO concentration in the culture system was 0.1%), 2 repeat wells for each concentration. The diluted solution of each compound (20 μL) was added to the cell culture well (with a final concentration of 10 μM, 3.3 μM, 1.1 μM . . . ), and shaken gently for mixing. In addition, three negative control wells containing only cells and three blank control wells containing only culture medium (20 μL DMSO diluted 200 times with culture medium being added to six wells) were included.
(1) After culturing for 6 days, 10 μL CCK-8 was added to each well and cultured for additional 2.5 h in a 37° C., 5% CO2 cell incubator.
(2) The absorbance (OD value) at 450 nm was measured with a multifunctional microplate reader.
(3) The data was analyzed by the Dose-response-inhibition equation in the software GraphPad Prism6, and the IC50 value was obtained.

Structure (SMILES)	pIC50
[2H]C([2H])([2H])n1cc(-c2cc(S(C)(=O)=O)c(F)cc2N2CCC3(CC2)CC3)c2cc[nH]c2c1=O [Compound 238, 4-(4-fluoro-5-(methanesulfonyl)-2-(6-aza-spiro[2.5]octan-6-yl)phenyl)-6-trideuteromethyl-1H-pyrrolo[2,3-c]pyridin-7(6H)-one]	8.10
Cn1cc(-c2cc(C(=O)O)ccc2N2CCC3(CC2)CC3)c2cc[nH]c2c1=O [Compound 220, 3-(6-methyl-7-oxo-6,7-dihydro-1H-pyrrolo[2,3-c]pyridin-4-yl)-4-(6-aza-spiro[2.5]octan-6-yl)benzoic acid]	6.28
CCS(=O)(=O)Nc1ccc(N2CCCC3(CC3)C2)c(-c2cn(C)c(=O)c3[nH]ccc23)c1 [Compound 9, N-(3-(6-methyl-7-oxo-6,7-dihydro-1H-pyrrolo[2,3-c]pyridin-4-yl)-4-(5-aza-spiro[2.5]octan-5-yl)phenyl)ethylsulfonamide]	7.52
Cn1cc(-c2cc(NS(C)(=O)=O)ccc2N2CCCC3(CC3)C2)c2cc[nH]c2c1=O [Compound 71, N-(3-(6-methyl-7-oxo-6,7-dihydro-1H-pyrrolo[2,3-c]pyridin-4-yl)-4-(5-aza-spiro[2.5]octan-5-yl)phenyl)methylsulfonamide]	7.03
[2H]C([2H])([2H])n1cc(-c2cc(S(=O)(=O)CCCC)ccc2N2CC3(COC3)C2)c2cc[nH]c2c1=O [Compound 66, 4-(5-(butylsulfonyl)-2-(2-oxa-6-aza-spiro[3.3]heptan-6-yl)phenyl)-6-trideuteromethyl-1H-pyrrolo[2,3-c]pyridin-7(6H)-one]	6.28
CCS(=O)(=O)Nc1ccc(N2CC3(CCC3)C2)c(-c2cn(C)c(=O)c3[nH]ccc23)c1 [Compound 14, N-(3-(6-methyl-7-oxo-6,7-dihydro-1H-pyrrolo[2,3-c]pyridin-4-yl)-4-(2-aza-spiro[3.3]heptan-2-yl)phenyl)ethanesulfonamide]	7.51
[2H]C([2H])([2H])n1cc(-c2cc(S(C)(=O)=O)cnc2N2CCC3(CC2)CC3)c2cc[nH]c2c1=O [Compound 187, 6-trideuteromethyl-4-(5(methylsulfonyl)-2-(6-aza-spiro[2.5]octan-6-yl)pyridin-3-yl)-1H-pyrrolo[2,3-c]pyridin-7(6H)-one]	7.72
Cn1cc(-c2cc(NS(=O)(=O)C3CC3)ccc2N2CC3(CCC3)C2)c2cc[nH]c2c1=O [Compound 10, N-(3-(6-methyl-7-oxo-6,7-dihydro-1H-pyrrolo[2,3-c]pyridin-4-yl)-4-(2-aza-spiro[3.3]heptan-2-yl)phenyl)cyclopropanesulfonamide]	7.54
[2H]C([2H])([2H])n1cc(-c2cc(S(N)(=O)=O)ccc2N2CCC3(CC2)CC3)c2cc[nH]c2c1=O [Compound 201, 3-(6-trideuteromethyl-7-oxo-6,7-dihydro-1H-pyrrolo[2,3-c]pyridin-4-yl)-4-(6-azaspiro[2.5]octan-6-yl)benzenesulfonamide]	8.85
Cn1cc(-c2cc(S(C)(=O)=O)ccc2N2CC3(COC3)C2)c2cc[nH]c2c1=O [Compound 34, 6-methyl-4-(5-(methylsulfonyl)-2-(2-oxa-6-aza-spiro[3.3]heptan-6-yl)phenyl)-1H-pyrrolo[2,3-c]pyridin-7(6H)-one]	6.42
[2H]C([2H])([2H])n1cc(-c2cc(S(=O)(=O)C3COC3)ccc2N2CC3(CCC3)C2)c2cc[nH]c2c1=O [Compound 61, 6-trideuteromethyl-4-(5-(oxetane-3-ylsulfonyl)-2-(2-aza-spiro [3.3]heptan-2-yl)phenyl)-1H-pyrrolo[2,3-c]pyridin-7(6H)-one]	6.98
[2H]C([2H])([2H])n1cc(-c2cc(S(=O)(=O)CC)ccc2N2CC3(COC3)C2)c2cc[nH]c2c1=O [Compound 65, 4-(5-(ethylsulfonyl)-2-(2-oxa-6-aza-spiro[3.3]heptan-6-yl)phenyl)-6-trideuteromethyl-1H-pyrrolo[2,3-c]pyridin-7(6H)-one]	6.39
CCS(=O)(=O)c1ccc(N2CC3(COC3)C2)c(-c2cn(C)c(=O)c3[nH]ccc23)c1 [Compound 35, 4-(5-(ethylsulfonyl)-2-(2-oxa-6-aza-spiro[3.3]heptan-6-yl)phenyl)-6-methyl-1H-pyrrolo[2,3-c]pyridin-7(6H)-one]	6.36
Cn1cc(-c2cc(S(C)(=O)=O)ccc2N2CC3(CCC3)C2)c2cc[nH]c2c1=O [Compound 30, 6-methyl-4-(5-(methylsulfonyl)-2-(2-aza-spiro[3.3]heptan-2-yl)phenyl)-1H-pyrrolo[2,3-c]pyridin-7(6H)-one]	7.42
Cn1cc(-c2cc(NC(=O)CCC(=O)O)ccc2N2CCC3(CC2)CC3)c2cc[nH]c2c1=O [Compound 247, 4-((3-(6-methyl-7-oxo-6,7-dihydro-1H-pyrrolo[2,3-c]pyridin-4-yl)-4-(6-aza-spiro[2.5]octan-6-yl)phenyl)amino)-4-oxobutyric acid]	6.17
Cn1cc(-c2cc(NS(=O)(=O)C3COC3)ccc2N2CC3(CCC3)C2)c2cc[nH]c2c1=O [Compound 12, N-(3-(6-methyl-7-oxo-6,7-dihydro-1H-pyrrolo[2,3-c]pyridin-4-yl)-4-(2-aza-spiro[3.3]heptan-2-yl)phenyl)oxetane-3-sulfonamide]	7.05
[2H]C([2H])([2H])n1cc(-c2cc(S(=O)(=O)CC(=O)O)ccc2N2CCC3(CC2)CC3)c2cc[nH]c2c1=O [Compound 235, 2-((3-(6-trideuteromethyl-7-oxo-6,7-dihydro-1H-pyrrolo[2,3-c]pyridin-4-yl)-4-(6-aza-spiro[2.5]octan-6-yl)phenyl)sulfonyl)acetic acid]	8.77
[2H]C([2H])([2H])n1cc(-c2cc(S(N)(=O)=O)cnc2N2CCC3(CC3)C2)c2cc[nH]c2c1=O [Compound 198, 5-(6-trideuteromethyl-7-oxo-6,7-dihydro-1H-pyrrolo[2,3-c]pyridin-4-yl)-6-(5-aza-spiro[2.4]heptan-5-yl)pyridin-3-sulfonamide]	8.00
[2H]C([2H])([2H])n1cc(-c2cc(NS(C)(=O)=O)ccc2N2CC3(COC3)C2)c2cc[nH]c2c1=O [Compound 48, N-(3-(6-trideuteromethyl-7-oxo-6,7-dihydro-1H-pyrrolo[2,3-c]pyridin-4-yl)-4-(2-oxa-6-aza-spiro[3.3]heptan-6-yl)phenyl)methanesulfonamide]	6.40
[2H]C([2H])([2H])n1cc(-c2cc(S(N)(=O)=O)c(F)cc2N2CCC3(CC2)CC3)c2cc[nH]c2c1=O [Compound 236, 2-fluoro-5-(6-trideuteromethyl-7-oxo-6,7-dihydro-1H-pyrrolo [2,3-c]pyridin-4-yl)-4-(6-aza-spiro[2.5]octan-6-yl)benzenesulfonamide]	8.49
CCCCS(=O)(=O)Nc1ccc(N2CC3(CCC3)C2)c(-c2cn(C)c(=O)c3[nH]ccc23)c1 [Compound 13, N-(3-(6-methyl-7-oxo-6,7-dihydro-1H-pyrrolo[2,3-c]pyridin-4-yl)-4-(2-aza-spiro[3.3]heptan-2-yl)phenyl)butane-1-sulfonamide]	7.10
[2H]C([2H])([2H])n1cc(-c2cc(NS(=O)(=O)C3COC3)ccc2N2CC3(CCC3)C2)c2cc[nH]c2c1=O [Compound 45, N-(3-(6-trideuteromethyl-7-oxo-6,7-dihydro-1H-pyrrolo[2,3-c]pyridin-4-yl)-4-(2-aza-spiro[3.3]heptan-2-yl)phenyl) oxetane-3-sulfonamide]	6.96
[2H]C([2H])([2H])n1cc(-c2cc(S(=O)(=O)N(C)C)ccc2N2CCC3(CC2)CC3)c2cc[nH]c2c1=O [Compound 203, N,N-dimethyl-3-(6-trideuteromethyl-7-oxo-6,7-dihydro-1H-pyrrolo[2,3-c]pyridin-4-yl)-4-(6-aza-spiro[2.5]octan-6-yl)benzenesulfonamide]	9.70
[2H]C([2H])([2H])n1cc(-c2cc(S(=O)(=O)C3CC3)ccc2N2CC3(COC3)C2)c2cc[nH]c2c1=O [Compound 67, 4-(5-(cyclopropylsulfonyl)-2-(2-oxa-6-aza-spiro[3.3]heptan-6-yl)phenyl)-6-trideuteromethyl-1H-pyrrolo[2,3-c]pyridin-7(6H)-one]	6.31
CCS(=O)(=O)c1ccc(N2CCC3(CC3)C2)c(-c2cn(C)c(=O)c3[nH]ccc23)c1 [Compound 25, 4-(5(ethylsulfonyl)-2-(5-aza-spiro[2.4]heptan-5-yl)phenyl)-6-methyl-1H-pyrrolo[2,3-c]pyridin-7(6H)-one]	7.59
[2H]C([2H])([2H])n1cc(-c2cc(S(C)(=O)=O)ccc2N2CC3(COC3)C2)c2cc[nH]c2c1=O [Compound 64, 6-trideuteromethyl-4-(5-(methylsulfonyl)-2-(2-oxa-6-aza-spiro[3.3]heptan-6-yl)phenyl)-1H-pyrrolo[2,3-c]pyridin-7(6H)-one]	6.42
